≈ marks a conversion by molar mass, not a printed value. Positions of bridges follow the written chain, without caps; N, C: chain ends. Non-standard residues stand in square brackets, D forms with d. Residues, ends and D or L forms follow the SMILES beside them. *: point of attachment. Benzoyl(4-Ph) = O=C(c1ccc(-c2ccccc2)cc1)*; dDab = NCC[C@@H](N)C(=O)O; Dab = NCC[C@H](N)C(=O)O
Legend:
[1] = tested on: red blood cell (5% sheep blood agar plate); assay type: cell-based
Procedure: The hemolytic activity of cilagicin was evaluated using a red blood cell disc diffusion assay. Cilagicin and other test compounds were dissolved in 10% DMSO to give concentrations ranging from 100 μg/mL to 12.5 μg/mL. 10% (v/v) Triton X-100 and 10% DMSO were used as positive and vehicle controls, respectively. 20 μL of each serially diluted compound was infused on a sterile disc. Infused discs were overlaid on the surface of a 5% sheep blood agar plate (Hardy diagnostics, USA) and incubated at 20° C. for 24 hours. The size of the transparent ring that appeared in the agar plate was measured to determine hemolytic activity. Experiments were performed two independent times. A representative picture was taken of one experiment.

Clostridium difficile = test: MIC assay (broth microdilution); assay type: cell-based; conditions: C. difficile HM89
Procedure: (§1) MIC assay were conducted using the protocol recommended by the Clinical and Laboratory Standards Institute.(37) Culture conditions (temperature, medium) are detailed in Table 3. All compounds were dissolved in sterile DMSO (ATCC, USA) to give a concentration of 6.4 mg/mL. Vancomycin hydrochloride was used as positive controls. Tested compounds were serially diluted across 96-well plates using a 2-fold serial dilution in a volume of 50 μL. An overnight culture of an assay strain was diluted 5,000-fold in fresh medium. 50 μL of this dilution was added into each well, giving a final volume of 100 μL in each well. Compounds were assayed at concentrations ranging from 64 μg/mL to 0.06 μg/mL. The top and bottom rows of each plate were filled with 100 μL of media to avoid edge effects. […] For Clostridium difficile plates were statically incubated under anaerobic conditions (Vinyl anaerobic chamber, 37° C., 5% H2, 5% CO2, 90% N2). For Streptococcus pneumoniae plates were statically incubated under aerobic conditions supplemented with 5% C02 (37° C.). All MICs were performed in technical duplicate (n=2) and repeated three independent times (n=3).

S. pyrogens ATCC19615 = test: Neutropenic thigh infection model in mice; assay type: in vivo, Streptococcus pyrogens; conditions: neutropenic mouse thigh model
S. aureus USA300 = test: Neutropenic thigh infection model in mice; assay type: in vivo, Staphylococcus aureus; conditions: neutropenic mouse thigh model, S. aureus USA300, 40 mg/kg thrice daily (TID) IP, 24 hours post infection
Procedure: Mice were randomly housed in individually ventilated cages (IVC). The room was set on a twelve-hour light cycle and the temperature was set to 70° F. The humidity was set to 30%. To initiate the neutropenic model, mice were injected with 150 mg/kg and 100 mg/kg of cyclophosphamide via intraperitoneal (IP) injection on days −4 and −1, respectively. On day −1, a single colony of S. aureus USA300 was grown in 15 mL of cation adjusted Mueller Hinton (MH) broth at 37° C. with shaking overnight. On day 0, cells were centrifuged, washed twice in 0.9% sterile saline, and resuspended in sterile 0.9% saline solution to give final optical density (600 nm) of 0.1. 50 μL of bacteria suspension was injected into both thighs via intramuscular (IM) injection. This provides a challenge inoculum of approximately 1.0×10^6 CFU in each thigh in a volume of 50 μL. At 2 hours post infection, mice were given 200 μL of vehicle (10% DMSO), vancomycin (40 mg/kg, 10% DMSO) or cilagicin BP (40 mg/kg, 10% DMSO) at 2, 10, and 18 hours post infection via IP injection. Mice in the pretreatment group (n=4 mice/n=8 thighs) were humanely euthanized by CO2 narcosis to determine the starting thigh bacterial burden. […] All graphic data are expressed as data points by group and were statistically analyzed using Prism software (Prism 9). […]

HEK293 cells = assay type: cell-based, human
Procedure: The cytotoxicity of […] analogs was tested using an MTT (3-(4,5-Dimethyl-2-thiazolyl)-2,5-diphenyl-2H-tetrazolium bromide) assay as previously described ([…] et al., 2006, […]7). HEK293 cells were seeded in a 96-well plate with a density of 5,000 cells/well and cultured in Dulbecco's Modified Eagle Medium (DMEM) supplemented with 10% fetal bovine serum, 1% Pen/Strep and 1% glutamate for 24 hours at 37° C. with 5% CO2. […] After 48 hours of incubation, the media was removed and 110 μL of freshly prepared MTT solution (0.45 mg/mL in DPBS) was added to each well. The plates were incubated for 3 hours at 37° C. with 5% C02 after which the MTT solution was removed by aspiration. […] The absorbance of each well was measured at OD570nm using a microplate reader (Infinite 200 PRO, Tecan). […] All the experiments were performed in triplicates (n=3) and repeated two independent times (n=2).

Staphylococcus aureus = assay type: cell-based
Procedure: as §1

Enterococcus faecium = assay type: cell-based
Procedure: as §1

Streptococcus agalactiae = assay type: cell-based
Procedure: as §1

Streptococcus pneumoniae = assay type: cell-based
Procedure: as §1

Streptococcus pyrogens = assay type: cell-based
Procedure: as §1

SMILES: CC(C)[C@@H]1NC(=O)[C@H](Cc2ccc(O)cc2)NC(=O)CNC(=O)[C@@H](CC(=O)O)NC(=O)[C@@H](CC(N)=O)NC(=O)CNC(=O)[C@H](CC(=O)O)NC(=O)[C@@H](CCN)NC(=O)[C@@H](NC(=O)[C@@H](CO)NC(=O)c2ccc(-c3ccccc3)cc2)[C@@H](C)OC(=O)[C@H](Cc2ccccc2)NC(=O)[C@H](CCN)NC1=O [Cilagicin BP] ({Benzoyl(4-Ph)}-[dS]T[dDab]DG[dN][dD]GYV[Dab]F; ester 2-C)
- hemolytic activity [1]: no hemolytic activity
- MIC (Clostridium difficile): 16 µg/mL (≈ 11.1 µM)
- reduction in bacterial burden compared to the vehicle control (S. pyrogens ATCC19615; S. pyrogens ATCC19615, 40 mg/kg TID IP, 24 hours post infection): > 5 log10
- reduction of bacterial burden compared with vancomycin (S. pyrogens ATCC19615; S. pyrogens, both 40 mg/kg TID): more than a log greater reduction of bacterial burden than vancomycin
- reduction in colony forming units (CFU) compared to the vehicle control (S. aureus USA300): ~4 log10
- human cell cytotoxicity (HEK293 cells): no human cell cytotoxicity
- MIC (Staphylococcus aureus): 4 µg/mL (≈ 2.78 µM)
- antibacterial activity (MIC) in the presence of serum (Staphylococcus aureus; S. aureus, presence versus absence of serum (10% serum)): no increase in MIC
- MIC (Enterococcus faecium): >64 µg/mL
- MIC (Streptococcus agalactiae): 16 µg/mL (≈ 11.1 µM)
- MIC (Streptococcus pneumoniae): 4 µg/mL (≈ 2.78 µM)
- MIC (Streptococcus pyrogens): 1 µg/mL (≈ 0.696 µM)

Source: patent publication US20260193295A1, “CILAGICIN COMPOUNDS AND METHODS OF USE THEREOF” (priority 2022, published 2026)
